Reference: patent US20230085307A1, “PYRIDAZINONE COMPOUND AND HERBICIDE” (NISSAN CHEMICAL CORPORATION, priority 2019, published 2023)

Assays:
barnyard grass [1] = test: Test Example 4: herbicidal effect by soil treatment (Table 19, symbol H); format: in vivo, barnyard grass (Echinochloa crus-galli); details: amount of applied herbicide 320 g/ha
In short: (§1)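 Applied as a water-diluted emulsion, the compound was sprayed onto soil covering newly sown seeds. Evaluation came three weeks after application, in a greenhouse held at 25° C. to 30° C.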

southern crabgrass [2] = test: Test Example 5: herbicidal effect by foliage application, plastic box (Table 20, symbol F); format: in vivo, southern crabgrass (Digitaria ciliaris); details: foliage application, 320 g/ha, three weeks after application
In short: (§2)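 Sow seeds spot-wise in sterilized diluvial soil; cover with ~1.5 cm soil. Grow 14 days in greenhouse, 25° C. to 30° C. Spray foliage with emulsion diluted to predetermined amount. Rate effect after 3 weeks.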

blackgrass [3] = test: Test Example 4: herbicidal effect by soil treatment (Table 19, symbol J); format: in vivo, blackgrass (Alopecurus myosuroides); details: amount of applied herbicide 320 g/ha
In short: as §1

false cleavers [4] = test: Test Example 5: herbicidal effect by foliage application, plastic box (Table 20, symbol Q); format: in vivo, false cleavers (Galium spurium); details: foliage application, 320 g/ha, three weeks after application
In short: as §2

false cleavers [5] = test: Test Example 4: herbicidal effect by soil treatment (Table 19, symbol Q); format: in vivo, false cleavers (Galium spurium); details: amount of applied herbicide 320 g/ha
In short: as §1

velvetleaf [6] = test: Test Example 4: herbicidal effect by soil treatment (Table 19, symbol M); format: in vivo, velvetleaf (Abutilon theophrasti); details: amount of applied herbicide 320 g/ha
In short: as §1

green foxtail [7] = test: Test Example 4: herbicidal effect by soil treatment (Table 19, symbol G); format: in vivo, green foxtail (Setaria viridis); details: amount of applied herbicide 320 g/ha
In short: as §1

velvetleaf [8] = test: Test Example 5: herbicidal effect by foliage application, plastic box (Table 20, symbol M); format: in vivo, velvetleaf (Abutilon theophrasti); details: foliage application, 320 g/ha, three weeks after application
In short: as §2

windgrass [9] = test: Test Example 4: herbicidal effect by soil treatment (Table 19, symbol L); format: in vivo, windgrass (Apera spica-venti); details: amount of applied herbicide 320 g/ha
In short: as §1

windgrass [10] = test: Test Example 5: herbicidal effect by foliage application, plastic box (Table 20, symbol L); format: in vivo, windgrass (Apera spica-venti); details: foliage application, 320 g/ha, three weeks after application
In short: as §2

persian speedwell [11] = test: Test Example 5: herbicidal effect by foliage application, plastic box (Table 20, symbol R); format: in vivo, Persian speedwell (Veronica persica); details: foliage application, 320 g/ha, three weeks after application
In short: as §2

rice flat sedge = test: Test Example 3: herbicidal effect by foliage application, Wagner pot (Table 18, symbol E); format: in vivo, rice flat sedge (Cyperus iria); details: 320 g/ha
In short: (§3)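 Plants were sown in alluvial soil held under 0.1–0.5 cm standing water and grown 14 days in a greenhouse at 25–30 °C. An emulsifiable formulation, water-diluted to the set dose, was then sprayed onto the foliage, and effects were scored three weeks later using previously defined criteria.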

green foxtail [12] = test: Test Example 5: herbicidal effect by foliage application, plastic box (Table 20, symbol G); format: in vivo, green foxtail (Setaria viridis); details: foliage application, 320 g/ha, three weeks after application
In short: as §2

redroot pigweed [13] = test: Test Example 5: herbicidal effect by foliage application, plastic box (Table 20, symbol N); format: in vivo, redroot pigweed (Amaranthus retroflexus); details: foliage application, 320 g/ha, three weeks after application
In short: as §2

Japanese bulrush = test: Test Example 1: herbicidal activity, application before weed generation under submerged conditions (Table 16, symbol B); format: in vivo, Japanese bulrush (Schoenoplectus juncoides); details: amount of applied herbicide 320 g/ha
In short: (§4)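 Emulsion formulation, water-diluted to set dose, was put onto the flooded surface (4 cm depth, alluvial soil) the same day weeds were sown and 2.5-leaf rice transplanted. After 3 weeks at 25-30 °C under glass, each species was rated 0 (≤5% kill) to 5 (≥90% kill).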

late watergrass = test: Test Example 1: herbicidal activity, application before weed generation under submerged conditions (Table 16, symbol A); format: in vivo, late watergrass (Echinochloa oryzicola); details: amount of applied herbicide 320 g/ha
In short: as §4

wild oat [14] = test: Test Example 4: herbicidal effect by soil treatment (Table 19, symbol I); format: in vivo, wild oat (Avena fatua); details: amount of applied herbicide 320 g/ha
In short: as §1

lambsquarters [15] = test: Test Example 5: herbicidal effect by foliage application, plastic box (Table 20, symbol O); format: in vivo, lambsquarters (Chenopodium album); details: foliage application, 320 g/ha, three weeks after application
In short: as §2

oval-leafed pondweed = test: Test Example 1: herbicidal activity, application before weed generation under submerged conditions (Table 16, symbol C); format: in vivo, oval-leafed pondweed (Monochoria vaginalis); details: amount of applied herbicide 320 g/ha
In short: as §4

persian speedwell [16] = test: Test Example 4: herbicidal effect by soil treatment (Table 19, symbol R); format: in vivo, Persian speedwell (Veronica persica); details: amount of applied herbicide 320 g/ha
In short: as §1

redroot pigweed [17] = test: Test Example 4: herbicidal effect by soil treatment (Table 19, symbol N); format: in vivo, redroot pigweed (Amaranthus retroflexus); details: amount of applied herbicide 320 g/ha
In short: as §1

Italian ryegrass [18] = test: Test Example 5: herbicidal effect by foliage application, plastic box (Table 20, symbol K); format: in vivo, Italian ryegrass (Lolium multiflorum); details: foliage application, 320 g/ha, three weeks after application
In short: as §2

Italian ryegrass [19] = test: Test Example 4: herbicidal effect by soil treatment (Table 19, symbol K); format: in vivo, Italian ryegrass (Lolium multiflorum); details: amount of applied herbicide 320 g/ha
In short: as §1

barnyard grass [20] = test: Test Example 3: herbicidal effect by foliage application, Wagner pot (Table 18, symbol H); format: in vivo, barnyard grass (Echinochloa crus-galli); details: 320 g/ha
In short: as §3

southern crabgrass [21] = test: Test Example 4: herbicidal effect by soil treatment (Table 19, symbol F); format: in vivo, southern crabgrass (Digitaria ciliaris); details: amount of applied herbicide 320 g/ha
In short: as §1

chickweed [22] = test: Test Example 4: herbicidal effect by soil treatment (Table 19, symbol P); format: in vivo, common chickweed (Stellaria media); details: amount of applied herbicide 320 g/ha
In short: as §1

chickweed [23] = test: Test Example 5: herbicidal effect by foliage application, plastic box (Table 20, symbol P); format: in vivo, common chickweed (Stellaria media); details: foliage application, 320 g/ha, three weeks after application
In short: as §2

barnyard grass [24] = test: Test Example 5: herbicidal effect by foliage application, plastic box (Table 20, symbol H); format: in vivo, barnyard grass (Echinochloa crus-galli); details: foliage application, 320 g/ha, three weeks after application
In short: as §2

blackgrass [25] = test: Test Example 5: herbicidal effect by foliage application, plastic box (Table 20, symbol J); format: in vivo, blackgrass (Alopecurus myosuroides); details: foliage application, 320 g/ha, three weeks after application
In short: as §2

Chinese sprangletop = test: Test Example 3: herbicidal effect by foliage application, Wagner pot (Table 18, symbol D); format: in vivo, chinese sprangletop (Leptochloa chinensis); details: 320 g/ha
In short: as §3

wild oat [26] = test: Test Example 5: herbicidal effect by foliage application, plastic box (Table 20, symbol I); format: in vivo, wild oat (Avena fatua); details: foliage application, 320 g/ha, three weeks after application
In short: as §2

lambsquarters [27] = test: Test Example 4: herbicidal effect by soil treatment (Table 19, symbol O); format: in vivo, lambsquarters (Chenopodium album); details: amount of applied herbicide 320 g/ha
In short: as §1

CCCC(=O)Oc1c(C)nn(C)c(=O)c1-c1c(-c2ccc(F)cc2OC)sc2cc(Cl)ccc12 [3-044]
H: barnyard grass, herbicidal effect grade (barnyard grass [1]): 3 (Herbicidal rate of 40% or more and less than 70%)
F: southern crabgrass, herbicidal effect grade (southern crabgrass [2]): 3 (Herbicidal rate of 40% or more and less than 70%)
J: blackgrass, herbicidal effect grade (blackgrass [3]): 0 (Herbicidal rate of 5% or less (almost no effect))
Q: false cleavers, herbicidal effect grade (false cleavers [4]): 4 (Herbicidal rate of 70% or more and less than 90%)
Q: false cleavers, herbicidal effect grade (false cleavers [5]): 4 (Herbicidal rate of 70% or more and less than 90%)
M: velvetleaf, herbicidal effect grade (velvetleaf [6]): 2 (Herbicidal rate of 20% or more and less than 40%)
G: green foxtail, herbicidal effect grade (green foxtail [7]): 1 (Herbicidal rate of 5% or more and less than 20%)
M: velvetleaf, herbicidal effect grade (velvetleaf [8]): 4 (Herbicidal rate of 70% or more and less than 90%)
L: windgrass, herbicidal effect grade (windgrass [9]): 3 (Herbicidal rate of 40% or more and less than 70%)
L: windgrass, herbicidal effect grade (windgrass [10]): 5 (Herbicidal rate of 90% or more (almost completely withered))
R: persian speedwell, herbicidal effect grade (persian speedwell [11]): 3 (Herbicidal rate of 40% or more and less than 70%)
herbicidal effect on rice flat sedge (E) (rice flat sedge): 3 (Herbicidal rate of 40% or more and less than 70%)
G: green foxtail, herbicidal effect grade (green foxtail [12]): 4 (Herbicidal rate of 70% or more and less than 90%)
N: redroot pigweed, herbicidal effect grade (redroot pigweed [13]): 3 (Herbicidal rate of 40% or more and less than 70%)
Herbicidal effect, B: Japanese bulrush (Japanese bulrush): 0 (Herbicidal rate of 5% or less (almost no effect))
Herbicidal effect, A: late watergrass (late watergrass): 3 (Herbicidal rate of 40% or more and less than 70%)
I: wild oat, herbicidal effect grade (wild oat [14]): 0 (Herbicidal rate of 5% or less (almost no effect))
O: lambsquarters, herbicidal effect grade (lambsquarters [15]): 3 (Herbicidal rate of 40% or more and less than 70%)
Herbicidal effect, C: oval-leafed pondweed (oval-leafed pondweed): 0 (Herbicidal rate of 5% or less (almost no effect))
R: persian speedwell, herbicidal effect grade (persian speedwell [16]): 3 (Herbicidal rate of 40% or more and less than 70%)
N: redroot pigweed, herbicidal effect grade (redroot pigweed [17]): 4 (Herbicidal rate of 70% or more and less than 90%)
K: Italian ryegrass, herbicidal effect grade (Italian ryegrass [18]): 0 (Herbicidal rate of 5% or less (almost no effect))
K: Italian ryegrass, herbicidal effect grade (Italian ryegrass [19]): 0 (Herbicidal rate of 5% or less (almost no effect))
herbicidal effect on barnyard grass (H) (barnyard grass [20]): 5 (Herbicidal rate of 90% or more (almost completely withered))
F: southern crabgrass, herbicidal effect grade (southern crabgrass [21]): 1 (Herbicidal rate of 5% or more and less than 20%)
P: chickweed, herbicidal effect grade (chickweed [22]): 4 (Herbicidal rate of 70% or more and less than 90%)
P: chickweed, herbicidal effect grade (chickweed [23]): 5 (Herbicidal rate of 90% or more (almost completely withered))
H: barnyard grass, herbicidal effect grade (barnyard grass [24]): 5 (Herbicidal rate of 90% or more (almost completely withered))
J: blackgrass, herbicidal effect grade (blackgrass [25]): 5 (Herbicidal rate of 90% or more (almost completely withered))
herbicidal effect on Chinese sprangletop (D) (Chinese sprangletop): 0 (Herbicidal rate of 5% or less (almost no effect))
I: wild oat, herbicidal effect grade (wild oat [26]): 4 (Herbicidal rate of 70% or more and less than 90%)
O: lambsquarters, herbicidal effect grade (lambsquarters [27]): 4 (Herbicidal rate of 70% or more and less than 90%)

CCCC(=O)Oc1c(C)nn(C)c(=O)c1-c1c(-c2ccc(SC)cc2)sc2cc(OC)ccc12 [3-075]
H: barnyard grass, herbicidal effect grade (barnyard grass [1]): 0 (Herbicidal rate of 5% or less (almost no effect))
F: southern crabgrass, herbicidal effect grade (southern crabgrass [2]): 3 (Herbicidal rate of 40% or more and less than 70%)
J: blackgrass, herbicidal effect grade (blackgrass [3]): 0 (Herbicidal rate of 5% or less (almost no effect))
Q: false cleavers, herbicidal effect grade (false cleavers [4]): 5 (Herbicidal rate of 90% or more (almost completely withered))
Q: false cleavers, herbicidal effect grade (false cleavers [5]): 0 (Herbicidal rate of 5% or less (almost no effect))
M: velvetleaf, herbicidal effect grade (velvetleaf [6]): 0 (Herbicidal rate of 5% or less (almost no effect))
G: green foxtail, herbicidal effect grade (green foxtail [7]): 0 (Herbicidal rate of 5% or less (almost no effect))
M: velvetleaf, herbicidal effect grade (velvetleaf [8]): 0 (Herbicidal rate of 5% or less (almost no effect))
L: windgrass, herbicidal effect grade (windgrass [9]): 0 (Herbicidal rate of 5% or less (almost no effect))
L: windgrass, herbicidal effect grade (windgrass [10]): 0 (Herbicidal rate of 5% or less (almost no effect))
R: persian speedwell, herbicidal effect grade (persian speedwell [11]): 5 (Herbicidal rate of 90% or more (almost completely withered))
herbicidal effect on rice flat sedge (E) (rice flat sedge): 3 (Herbicidal rate of 40% or more and less than 70%)
G: green foxtail, herbicidal effect grade (green foxtail [12]): 3 (Herbicidal rate of 40% or more and less than 70%)
N: redroot pigweed, herbicidal effect grade (redroot pigweed [13]): 4 (Herbicidal rate of 70% or more and less than 90%)
Herbicidal effect, B: Japanese bulrush (Japanese bulrush): 1 (Herbicidal rate of 5% or more and less than 20%)
Herbicidal effect, A: late watergrass (late watergrass): 1 (Herbicidal rate of 5% or more and less than 20%)
I: wild oat, herbicidal effect grade (wild oat [14]): 0 (Herbicidal rate of 5% or less (almost no effect))
O: lambsquarters, herbicidal effect grade (lambsquarters [15]): 4 (Herbicidal rate of 70% or more and less than 90%)
Herbicidal effect, C: oval-leafed pondweed (oval-leafed pondweed): 2 (Herbicidal rate of 20% or more and less than 40%)
R: persian speedwell, herbicidal effect grade (persian speedwell [16]): 4 (Herbicidal rate of 70% or more and less than 90%)
N: redroot pigweed, herbicidal effect grade (redroot pigweed [17]): 3 (Herbicidal rate of 40% or more and less than 70%)
K: Italian ryegrass, herbicidal effect grade (Italian ryegrass [18]): 0 (Herbicidal rate of 5% or less (almost no effect))
K: Italian ryegrass, herbicidal effect grade (Italian ryegrass [19]): 0 (Herbicidal rate of 5% or less (almost no effect))
herbicidal effect on barnyard grass (H) (barnyard grass [20]): 0 (Herbicidal rate of 5% or less (almost no effect))
F: southern crabgrass, herbicidal effect grade (southern crabgrass [21]): 0 (Herbicidal rate of 5% or less (almost no effect))
P: chickweed, herbicidal effect grade (chickweed [22]): 2 (Herbicidal rate of 20% or more and less than 40%)
P: chickweed, herbicidal effect grade (chickweed [23]): 5 (Herbicidal rate of 90% or more (almost completely withered))
H: barnyard grass, herbicidal effect grade (barnyard grass [24]): 3 (Herbicidal rate of 40% or more and less than 70%)
J: blackgrass, herbicidal effect grade (blackgrass [25]): 0 (Herbicidal rate of 5% or less (almost no effect))
herbicidal effect on Chinese sprangletop (D) (Chinese sprangletop): 3 (Herbicidal rate of 40% or more and less than 70%)
I: wild oat, herbicidal effect grade (wild oat [26]): 0 (Herbicidal rate of 5% or less (almost no effect))
O: lambsquarters, herbicidal effect grade (lambsquarters [27]): 3 (Herbicidal rate of 40% or more and less than 70%)
